Experimental data reported in US5264207A, “Products for cutaneous applications with cosmetic and/or therapeutic effects” (EXSYMOL S.A.M., priority 1989, dated 1993).

Columns and labels:
[1] = time of release/action of active substances after application to the skin; format: in vivo; details: for time of release on application to the skin: Example 4, product as it is or mixed with cosmetic cream, gel or lotion
Description: The microspheres are constituted by a copolymer of 2 moles of styrene with 2 moles of butadiene and 1 mole of 2-aminoethanol methacrylate. They are prepared in the known manner, in aqueous dispersion with Na dodecylsulfate as a surfactant and K persulfate as a catalyst. After polymerization, the microspheres are neutralized, purified by aqueous dialysis and passed over an ion-exchange resin.
0.09 g of pyrrolidone carboxylic acid, which binds to the methacrylate --NH2 group forming a covalent amide bond, is added to 100 ml of suspension of 4 g of these microspheres numbering […] (average size 96 nm). Another purification is then carried out and 6.1 g of dimethyl silanol hyaluronate, the same as in example 1, are added to the suspension and adsorbed.
The resulting suspension of 106.1 g thus contains 0.09 g of pyrrolidone carboxylic acid and 0.28 g of the Si contained in dimethyl silanol hyaluronate. Application to the skin of the product as it is, or mixed with a cosmetic cream, gel or lotion leads to release of the pyrrolidone compound in 2 to 5 hours and release of the hyaluronate compound in 10 to 17 hours. A synergetic effect of the two active substances is also observed for 2 to 5 hours, followed by a longer period of hyaluronate action only.
The microspheres prepared in the known manner, described at the beginning of example 4, consist of a copolymer of 4 moles of styrene with 1 mole of acrylic acid.
(A)-100 g of an aqueous suspension of 5 g of microspheres are reacted with 0.126 g of theophylline, which binds to the acryl groups.
(B)-The microspheres are then given functional groups using diamine hexamethylene, after which they are treated with a 40 g/kg elastin aqueous solution. 0.3 g of elastin polypeptides thus bind to the copolymer.
(C)-The product obtained is purified and made to adsorb Ruscus Aculeatus glucosides, from an aqueous extract of this plant (Ruscus 1=33).

[2] = Description: 100 g of an aqueous suspension of 5 g of nanospheres having a diameter of about 70 to 130 nm (average 100 nm) are prepared by the copolymerization of an emulsion of 4 moles of styrene and 1 mole of acrylic acid, according to the technique described in example 2. 0.126 g of theophylline, which binds to the acrylic acid groups of the copolymer by an electronic-type chemical interaction, is added to these 100 g.
A liquid product (a-b) composed of two sets of copolymer/active substance nanospheres is thus obtained:
The liquid (a-b) is submitted to tests on an experimental model, reproducing diffusion phenomena in the skin.
The proportions of each of the active substances which may have been in contact with the skin in 3 hours is thus determined.
Given below are the percentages of the initial amount of each of these active substances which, according to the tests mentioned hereinabove, may have been diffused into the skin from the liquid studied:
They thus contained no --COOH groups likely to react with the --NH groups of theophylline. […]
As above, the amount of active principal available to the skin in 3 hours was determined. […]
The proportion of theophylline which is available to the skin in 3 hours and in 5 hours is then determined from 100 g of an aqueous suspension of 5 g of nanosphere charged as described above. […]

[3] = adsorption (charging) of active substance onto copolymer microspheres/nanospheres; format: physicochemical; details: 60% styrene / 40% methyl methacrylate copolymer, average 95 nm; room temperature, 48 hours

Molecule	time of release on application to the skin [1]	amount available to the skin, tempering ratio without : with nanospheres [2]	amount of active principal available to the skin in 3 hours [2]	time of action after application ([1]; in vivo)	microspheres are charged with dimethylsilanediol hyaluronate [3]
O=C1CC[C@@H](C(=O)O)N1 [pyrrolidone carboxylic acid]	2 to 5 h				
Cn1c(=O)c2[nH]cnc2n(C)c1=O [theophylline]		2.5 times	20%	2 to 8 h	
dimethylsilanediol hyaluronate	10 to 17 h				30%
